Experiments:
Assay type in all cases: cell-based
[1] = system: human erythrocytes; assay: Annexin-V-FLUOS binding (eryptosis) by flow cytometry
Method: (§1) Single treatment: Erythrocytes were treated with costunolide or chelerythrine for 24 hours (see FIGS. 2, 4, 5 and 6). Double treatments: Erythrocytes were first pre-treated with chelerythrine for two hours, followed by treatment with costunolide for further 24 hours (see FIGS. 3 and 7). Thus, the incubation time for chelerythrine-treated erythrocytes lasted 26 h and 24 h for costunolide-treated erythrocytes. In single (0.2% v/v DMSO) and double treatments (0.4% v/v DMSO), DMSO-treated cells served as negative controls. […]
(§2) At the end of the incubation period, 0.1 ml erythrocytes (3×10^6) were added in 500 μl annexin wash buffer, mixed thoroughly and pelleted by centrifuging. […] After an incubation period of 20 minutes in the dark at room temperature, 200 μl annexin binding buffer was added to each sample, thoroughly vortexed to obtain single cell suspensions, and analyzed by flow cytometry on a FACS Calibur (Becton Dickinson, Heidelberg, Germany). In the FL1-channel, binding of annexin-V-FLUOS (eryptosis) was measured. Erythrocyte volume was determined by forward scatter (FSC). To this end, corresponding erythrocytes suspensions were immediately analysed by flow cytometry.

[2] = system: human erythrocytes; assay: Erythrocyte volume by forward scatter (cell shrinkage); details: single treatment with increasing concentrations of costunolide, 24 h, FIG. 2
Method: as §1, §2

[3] = system: human erythrocytes; assay: Hemolysis measurement (hemoglobin in supernatant, 405 nm); details: costunolide treatment, 24 h, FIG. 2C
Method: After 24 hours treatment of erythrocytes (0.6% Hct) with costunolide and/or chelerythrine, hemolysis was determined. 600 μl cell suspension form each condition containing 3.6×10^6 erythrocytes centrifuged for 8 min at 420×g, 4° C., and the supernatants were harvested. As a measure of hemolysis, the hemoglobin (Hb) concentration of the supernatants was determined photometrically at 405 nm. The absorption of the supernatant of DMSO-treated erythrocytes lysed in 600 μl distilled water was defined as 100%. From this the standard curve was made by serial dilution.

[4] = system: human erythrocytes; assay: Intracellular GSH and GSSG analysis; details: costunolide 1-80 μM, 24 h, FIG. 5
Method: For single (FIG. 5) or double treatments (FIG. 7), pure RBCs (0.6% Hct) were suspended in 30 ml Ringer solution and treated with varying concentrations of costunolide (1-80 μM) or different concentrations of chelerythrine (1-10 μM) and a fixed costunolide concentration (80 μM). DMSO-treated RBCs served as negative control. After incubation, 58 μl from a 310 mM NEM stock was given to each condition, gently mixed for 1 min and then centrifuged 10 min long at 10 C and 228×g. Supernatants were removed and the cell pellets were stored at −20° C. until analyses. GSH and GSSG were measured on the clear supernatant obtained by treatment of 0.1 ml RBCs with 0.12 ml 15% (w/v) trichloroacetic acid. […] GSSG was measured at the spectrophotometer by the GSH recycling method with slight modifications (Giustarini D. et al. 2013; Nat. Protoc. 8: 1660-1669, “Analysis of GSH and GSSG after derivatization with N-ethylmaleimide”). One aliquot of RBCs ([…]) was hemolyzed by a 1:200 dilution with H2O for haemoglobin determination (Di lorio E.E. 1981; Methods Enzymol. 76: 57-72 “Preparation of derivatives of ferrous and ferric hemoglobin”). The HPLC analyses were carried out by an Agilent series 1100 instrument. The spectrophotometric analyses were performed by a Jasco V-530 instrument.

[5] = molecular target: T1, glucose-6-phosphate dehydrogenase (G6PDH) (Homo sapiens, UniProt P11413); assay: Determination of G6PDH activity in erythrocyte lysates; details: costunolide treatment of erythrocytes, 24 h, FIG. 6
T1 construct: endogenous in cells; host or cells: human erythrocytes (RBCs), hemolysate
T1 sequence (P11413 whole entry): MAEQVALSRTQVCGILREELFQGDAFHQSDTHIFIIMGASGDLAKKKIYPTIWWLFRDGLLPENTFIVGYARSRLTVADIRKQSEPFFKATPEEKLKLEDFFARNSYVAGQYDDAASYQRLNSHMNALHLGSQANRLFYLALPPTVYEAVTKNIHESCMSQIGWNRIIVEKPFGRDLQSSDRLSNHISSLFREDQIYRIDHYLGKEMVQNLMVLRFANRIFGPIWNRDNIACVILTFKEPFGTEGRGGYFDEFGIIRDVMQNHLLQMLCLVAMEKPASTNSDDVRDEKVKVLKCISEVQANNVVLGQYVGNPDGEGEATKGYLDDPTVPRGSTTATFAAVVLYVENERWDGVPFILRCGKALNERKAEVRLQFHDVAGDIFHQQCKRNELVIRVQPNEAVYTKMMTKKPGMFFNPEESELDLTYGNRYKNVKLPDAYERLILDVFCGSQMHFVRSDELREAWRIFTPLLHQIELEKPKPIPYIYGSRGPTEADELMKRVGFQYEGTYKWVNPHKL
Method: Pure RBCs (0.6% Hct) were incubated in 20 ml Ringer solution and treated with DMSO or different concentrations of costunolide. 24 hrs later, cell suspensions were centrifuged at 10° C., 228×g. Supernatants were removed and the cell pellets were stored at −80° C. until analyses. G6PDH activity was measured in lysates according to methods recommended by the International Committee for Standardization in Hematology (Di lorio E.E. 1981; l.c.). The activity was expressed in units per grams of hemoglobin (U/g Hb) (Ghashghaeinia M. et al. 2012; l.c.). RBC pellet was diluted 1:20 with distilled water. After 10 min (for GR 20 min) incubation at 37° C., the reactions were started by adding substrate or hemolysate and mixed properly. Then, 200 μL of each reaction mixture was transferred into a 96-well plate and changes in absorbance were recorded at 340 nm at 1 min intervals for 20 min at 37° C. (Infinite 200 Nanoquant, Tecan). All assays were run in triplicates and specific enzyme activity was calculated using the Lambert-Beer law. Activity =(ΔA×V/(ϵ×l×t))×f.
0.1 M Tris-HCl/0.5 mM EDTA, pH=8.0; 0.01 M MgCl2; 0.2 mM NADP^+; 20 μL of 1:20 hemolysate; 10 min incubation at 37° C.; start by addition of 0.6 mM 6PGA+0.6 mM G6P

eryptosis rate ([1]; single treatment with increasing concentrations of costunolide, 24 h, FIG. 2) | Structure (SMILES) | basal eryptosis rate ([1]; without costunolide, DMSO control 1.69%, FIG. 3A) | cell shrinkage [2] | hemolysis [3] | GSH (reduced glutathione) level [4] | GSSG (oxidized glutathione) level [4] | G6PDH activity [5]
 | COc1ccc2c(c[n+](C)c3c4cc5c(cc4ccc23)OCO5)c1OC [chelerythrine, 1,2-Dimethoxy-12-methyl[1,3]benzodioxolo[5,6-c]phenanthridinium] | 1.1% |  |  |  |  | 
increased rates of eryptosis | C=C1C(=O)O[C@@H]2/C=C(\C)CC/C=C(\C)CC[C@@H]12 [costunolide] |  | increased rates of eryptosis and cell shrinkage | not associated with hemolysis | deplete both the reduced (GSH) and the oxidized (GSSG) form of glutathione in a concentration-dependent manner | deplete both the reduced (GSH) and the oxidized (GSSG) form of glutathione in a concentration-dependent manner | inhibit G6PDH activity completely

Reference: patent US20220370502A1, “Active Ingredient of an Erythrocytes-containing Composition” (priority 2020, published 2022)
